Patent publication US20140273094A1, “METHODS OF ENHANCING PROTEIN QUALITY AND QUANTITY BY YEAST FED-BATCH FERMENTATION” (BRISTOL-MYERS SQUIBB COMPANY, priority 2013, published 2014)

Test system: P. pastoris
Assay: Effect of hydroxyurea on cell growth and antibody productivity in fed-batch fermentation, Run 01MAY11
Type: cell-based, Pichia pastoris
Protocol: The glucose and ethanol were measured by YSI 2700 (YSI Incorporated, Yellow Springs, Ohio), O2 and CO2 of the exhaust line were measured by Questor GP Process Mass Spectrometer (ABB Extrel, Pittsburgh, Pa.) and the RQ value was calculated using below Equation [1]. The wet cell weight (WCW) was measured by centrifuging 1 milliliter (mL) fermentation broth at 13,200 rpm for 10 minutes, weighing pellet, and calculated ratio of pellets weight (g) over volume (mL). The supernatant titer (g/L) was measured by the HPLC method and the whole broth (WB) titer was then calculated by below Equation [2].
WB_Titer=Supernatant_Titer*(1−WCW/1000)
The treatment cultures were operated the same way plus adding hydroxyurea 5 hours after feed start.

NC(=O)NO [Hydroxyurea]
average whole broth titer (90 hours run time, three hydroxyurea treatment lots): 75 normalized units | WCW reached and maintained by hydroxyurea treatment lots (after peak cell density at 30-40 hours, control lots ~400 g/Kg): ~450 g/kg
